# Experimental data as given in US10131652B2, “Pyrimidinyloxy benzene derivatives as herbicides” (E. I. DU PONT DE NEMOURS AND COMPANY, priority 2014, dated 2018).
# Experiments:
# Assay in all cases: Test F pre-/postemergence plant response
# Type in all cases: in vivo
# Conditions in all cases: scale 0 to 100
# [1] = tested on: surinam grass (Brachiaria decumbens)
# Outline: (§1)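 Two application timings were run side by side: soil surface treatment of freshly planted seed in silt loam, and foliar treatment of seedlings 2 to 18 cm high. Plants stayed in the greenhouse 14 to 21 days before visual 0–100 injury scoring against controls.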
# [2] = tested on: waterhemp (common waterhemp, Amaranthus rudis)
# Outline: as §1
# [3] = tested on: palmer pigweed (Amaranthus palmeri)
# Outline: as §1
# [4] = tested on: lambsquarters (Chenopodium album)
# Outline: as §1
# [5] = tested on: Italian ryegrass (Lolium multiflorum)
# Outline: as §1
# [6] = tested on: goosegrass (Eleusine indica)
# Outline: as §1
# corn (Zea mays) = tested on: corn (Zea mays)
# Outline: as §1
# [7] = tested on: arrowleaf sida (Sida rhombifolia)
# Outline: as §1
# [8] = tested on: dayflower (Virginia (VA) dayflower, Commelina virginica)
# Outline: as §1
# [9] = tested on: velvetleaf (Abutilon theophrasti)
# Outline: as §1
# [10] = tested on: ragweed (common ragweed, Ambrosia elatior)
# Outline: as §1
# [11] = tested on: hairy beggarticks (Bidens pilosa)
# Outline: as §1
# soybean (Glycine max) = tested on: soybean (Glycine max)
# Outline: as §1
# [12] = tested on: yellow nutsedge (Cyperus esculentus)
# Outline: as §1
# [13] = tested on: sandbur (southern sandbur, Cenchrus echinatus)
# Outline: as §1
# [14] = tested on: barnyardgrass (Echinochloa crus-galli)
# Outline: as §1
compound,measurement,setting,value
FC(F)c1cc(-c2c(Cl)cccc2Oc2ncc(Cl)cn2)no1 [Compound 179],"Plant response rating, Surinam Grass",[1]; 16 g ai/ha Preemergence,0
same,"Plant response rating, Surinam Grass",[1]; 31 g ai/ha Preemergence,0
same,"Plant response rating, Surinam Grass",[1]; 125 g ai/ha Preemergence,0
same,"Plant response rating, Surinam Grass",[1]; Preemergence,0
same,"Plant response rating, Waterhemp",[2]; 16 g ai/ha Postemergence,70
same,"Plant response rating, Waterhemp",[2]; 16 g ai/ha Preemergence,95
same,"Plant response rating, Waterhemp",[2]; 31 g ai/ha Postemergence,95
same,"Plant response rating, Waterhemp",[2]; 31 g ai/ha Preemergence,95
same,"Plant response rating, Waterhemp",[2]; 62 g ai/ha Postemergence,95
same,"Plant response rating, Waterhemp",[2]; 125 g ai/ha Postemergence,100
same,"Plant response rating, Waterhemp",[2]; 125 g ai/ha Preemergence,100
same,"Plant response rating, Waterhemp",[2]; Preemergence,100
same,"Plant response rating, Pigweed, Palmer",[3]; 16 g ai/ha Postemergence,70
same,"Plant response rating, Pigweed, Palmer",[3]; 16 g ai/ha Preemergence,0
same,"Plant response rating, Pigweed, Palmer",[3]; 31 g ai/ha Postemergence,90
same,"Plant response rating, Pigweed, Palmer",[3]; 31 g ai/ha Preemergence,0
same,"Plant response rating, Pigweed, Palmer",[3]; 62 g ai/ha Postemergence,85
same,"Plant response rating, Pigweed, Palmer",[3]; 125 g ai/ha Postemergence,85
same,"Plant response rating, Pigweed, Palmer",[3]; 125 g ai/ha Preemergence,65
same,"Plant response rating, Pigweed, Palmer",[3]; Preemergence,35
same,"Plant response rating, Lambsquarters",[4]; 16 g ai/ha Preemergence,98
same,"Plant response rating, Lambsquarters",[4]; 31 g ai/ha Preemergence,100
same,"Plant response rating, Lambsquarters",[4]; 125 g ai/ha Preemergence,100
same,"Plant response rating, Lambsquarters",[4]; Preemergence,100
same,"Plant response rating, Ryegrass, Italian",[5]; 16 g ai/ha Postemergence,0
same,"Plant response rating, Ryegrass, Italian",[5]; 16 g ai/ha Preemergence,0
same,"Plant response rating, Ryegrass, Italian",[5]; 31 g ai/ha Postemergence,0
same,"Plant response rating, Ryegrass, Italian",[5]; 31 g ai/ha Preemergence,0
same,"Plant response rating, Ryegrass, Italian",[5]; 62 g ai/ha Postemergence,0
same,"Plant response rating, Ryegrass, Italian",[5]; 125 g ai/ha Postemergence,0
same,"Plant response rating, Ryegrass, Italian",[5]; 125 g ai/ha Preemergence,10
same,"Plant response rating, Ryegrass, Italian",[5]; Preemergence,0
same,"Plant response rating, Goosegrass",[6]; 16 g ai/ha Preemergence,0
same,"Plant response rating, Goosegrass",[6]; 31 g ai/ha Preemergence,0
same,"Plant response rating, Goosegrass",[6]; 125 g ai/ha Preemergence,0
same,"Plant response rating, Goosegrass",[6]; Preemergence,0
same,"Plant response rating, Corn",corn (Zea mays); 16 g ai/ha Postemergence,5
same,"Plant response rating, Corn",corn (Zea mays); 16 g ai/ha Preemergence,0
same,"Plant response rating, Corn",corn (Zea mays); 31 g ai/ha Postemergence,0
same,"Plant response rating, Corn",corn (Zea mays); 31 g ai/ha Preemergence,0
same,"Plant response rating, Corn",corn (Zea mays); 62 g ai/ha Postemergence,10
same,"Plant response rating, Corn",corn (Zea mays); 62 g ai/ha Preemergence,0
same,"Plant response rating, Corn",corn (Zea mays); 125 g ai/ha Postemergence,15
same,"Plant response rating, Corn",corn (Zea mays); 125 g ai/ha Preemergence,40
same,"Plant response rating, Arrowleaf Sida",[7]; 16 g ai/ha Postemergence,70
same,"Plant response rating, Arrowleaf Sida",[7]; 16 g ai/ha Preemergence,0
same,"Plant response rating, Arrowleaf Sida",[7]; 31 g ai/ha Postemergence,80
same,"Plant response rating, Arrowleaf Sida",[7]; 31 g ai/ha Preemergence,80
same,"Plant response rating, Arrowleaf Sida",[7]; 62 g ai/ha Postemergence,85
same,"Plant response rating, Arrowleaf Sida",[7]; 62 g ai/ha Preemergence,80
same,"Plant response rating, Arrowleaf Sida",[7]; 125 g ai/ha Postemergence,100
same,"Plant response rating, Arrowleaf Sida",[7]; 125 g ai/ha Preemergence,90
same,"Plant response rating, Dayflower, VA",[8]; 16 g ai/ha Preemergence,0
same,"Plant response rating, Dayflower, VA",[8]; 31 g ai/ha Preemergence,0
same,"Plant response rating, Dayflower, VA",[8]; 62 g ai/ha Preemergence,35
same,"Plant response rating, Dayflower, VA",[8]; 125 g ai/ha Preemergence,85
same,"Plant response rating, Velvetleaf",[9]; 16 g ai/ha Preemergence,15
same,"Plant response rating, Velvetleaf",[9]; 31 g ai/ha Preemergence,65
same,"Plant response rating, Velvetleaf",[9]; 125 g ai/ha Preemergence,100
same,"Plant response rating, Velvetleaf",[9]; Preemergence,90
same,"Plant response rating, Ragweed",[10]; 16 g ai/ha Postemergence,45
same,"Plant response rating, Ragweed",[10]; 16 g ai/ha Preemergence,0
same,"Plant response rating, Ragweed",[10]; 31 g ai/ha Postemergence,40
same,"Plant response rating, Ragweed",[10]; 31 g ai/ha Preemergence,0
same,"Plant response rating, Ragweed",[10]; 62 g ai/ha Postemergence,40
same,"Plant response rating, Ragweed",[10]; 125 g ai/ha Postemergence,50
same,"Plant response rating, Ragweed",[10]; 125 g ai/ha Preemergence,0
same,"Plant response rating, Ragweed",[10]; Preemergence,0
same,"Plant response rating, Beggarticks",[11]; 16 g ai/ha Postemergence,20
same,"Plant response rating, Beggarticks",[11]; 16 g ai/ha Preemergence,0
same,"Plant response rating, Beggarticks",[11]; 31 g ai/ha Postemergence,50
same,"Plant response rating, Beggarticks",[11]; 31 g ai/ha Preemergence,0
same,"Plant response rating, Beggarticks",[11]; 62 g ai/ha Postemergence,40
same,"Plant response rating, Beggarticks",[11]; 62 g ai/ha Preemergence,0
same,"Plant response rating, Beggarticks",[11]; 125 g ai/ha Postemergence,50
same,"Plant response rating, Beggarticks",[11]; 125 g ai/ha Preemergence,0
same,"Plant response rating, Soybean",soybean (Glycine max); 16 g ai/ha Postemergence,60
same,"Plant response rating, Soybean",soybean (Glycine max); 16 g ai/ha Preemergence,0
same,"Plant response rating, Soybean",soybean (Glycine max); 31 g ai/ha Postemergence,50
same,"Plant response rating, Soybean",soybean (Glycine max); 31 g ai/ha Preemergence,0
same,"Plant response rating, Soybean",soybean (Glycine max); 62 g ai/ha Postemergence,75
same,"Plant response rating, Soybean",soybean (Glycine max); 125 g ai/ha Postemergence,90
same,"Plant response rating, Soybean",soybean (Glycine max); 125 g ai/ha Preemergence,35
same,"Plant response rating, Soybean",soybean (Glycine max); Preemergence,0
same,"Plant response rating, Nutsedge, Yellow",[12]; 16 g ai/ha Preemergence,0
same,"Plant response rating, Nutsedge, Yellow",[12]; 31 g ai/ha Preemergence,0
same,"Plant response rating, Nutsedge, Yellow",[12]; 125 g ai/ha Preemergence,0
same,"Plant response rating, Nutsedge, Yellow",[12]; Preemergence,0
same,"Plant response rating, Sandbur",[13]; 16 g ai/ha Postemergence,0
same,"Plant response rating, Sandbur",[13]; 16 g ai/ha Preemergence,0
same,"Plant response rating, Sandbur",[13]; 31 g ai/ha Postemergence,0
same,"Plant response rating, Sandbur",[13]; 31 g ai/ha Preemergence,0
same,"Plant response rating, Sandbur",[13]; 62 g ai/ha Postemergence,5
same,"Plant response rating, Sandbur",[13]; 125 g ai/ha Postemergence,10
same,"Plant response rating, Sandbur",[13]; 125 g ai/ha Preemergence,0
same,"Plant response rating, Sandbur",[13]; Preemergence,0
same,"Plant response rating, Barnyardgrass",[14]; 16 g ai/ha Postemergence,0
same,"Plant response rating, Barnyardgrass",[14]; 16 g ai/ha Preemergence,0
same,"Plant response rating, Barnyardgrass",[14]; 31 g ai/ha Postemergence,0
same,"Plant response rating, Barnyardgrass",[14]; 31 g ai/ha Preemergence,0
same,"Plant response rating, Barnyardgrass",[14]; 62 g ai/ha Postemergence,0
same,"Plant response rating, Barnyardgrass",[14]; 62 g ai/ha Preemergence,0
same,"Plant response rating, Barnyardgrass",[14]; 125 g ai/ha Postemergence,0
same,"Plant response rating, Barnyardgrass",[14]; 125 g ai/ha Preemergence,5
